Earlier results as cited in PubChem BioAssay AID1259409 (Chemical Carcinogenesis Research Information System (CCRIS), 2018).

System: rodent chemically induced tumor inhibition, incidence and multiplicity
Assay: CCRIS tumor inhibitor studies
[1] = Carcinogen: 7,12-DIMETHYLBENZ[A]ANTHRACENE, 57-97-6, Dose [Inhibitor]: 0, 36 MMOL/KG IN DIET FOR 24 WK BEGINNING 2 WK PRIOR TO CARCINOGEN DOSE (STUDY DURATION: 24 WK), Route [Inhibitor]: ORAL, Species: RAT, Strain/Sex: SPRAGUE-DAWLEY/FEMALE, Target Tissue: Type of Lesion: MAMMARY GLAND: TUMOR, Dose [Carcinogen]: 65 MG/KG BW ONCE, Promoter: NONE USED
[2] = Carcinogen: 7,12-DIMETHYLBENZ[A]ANTHRACENE, 57-97-6, Dose [Inhibitor]: 0.1 MMOL IN 1 ML DIMETHYL SULFOXIDE ONCE 20 HR PRIOR TO CARCINOGEN ADMINISTRATION FOLLOWED BY A 14 WK OBSERVATION PERIOD, Route [Inhibitor]: GAVAGE, Species: RAT, Strain/Sex: SPRAGUE-DAWLEY/FEMALE, Target Tissue: Type of Lesion: MAMMARY GLAND: TUMOR, Dose [Carcinogen]: 12 MG IN 1 ML OLIVE OIL ONCE, Promoter: NONE USED

## COc1ccc2cc(CCC(C)=O)ccc2c1
Carcinogen: N-METHYL-N-NITROSOUREA, 684-93-5, Dose [Inhibitor]: 0, 0.03% IN DIET FOR 24 WK BEGINNING 1 WK POST CARCINOGEN DOSE (STUDY DURATION: 25 WK), Route [Inhibitor]: ORAL, Species: RAT, Strain/Sex: SPRAGUE-DAWLEY/FEMALE, Target Tissue: Type of Lesion: MAMMARY GLAND: TUMOR, Dose [Carcinogen]: 50 MG/KG ONCE, Promoter: NONE USED
  tumour outcome (control, treated, inhibition, significance): 24/30 (80%), 13/31 (42%), 48%, p<0.005

## CC(C)=CCC/C(C)=C/CO
[1]
  tumour outcome (control, treated, inhibition, significance): 91%, 81%, 11%, not significant

## O/N=C/Cc1c[nH]c2ccccc12
[2]
  tumour outcome (control, treated, inhibition, significance): 64%, 19%, 70%, p<0.05

## O=c1c(-c2ccc(O)cc2)coc2cc(O)cc(O)c12
Carcinogen: 7,12-DIMETHYLBENZ[A]ANTHRACENE (57-97-6), Dose [Inhibitor]: 140 MG/KG DIET FOR 17 WKS (STUDY DURATION: 17 WKS), Route [Inhibitor]: DIET, Species: RAT, Strain/Sex: SPRAGUE-DAWLEY/FEMALE (20,18)/(20,19), Target Tissue: Type of Lesion: MAMMARY, Dose [Carcinogen]: 12.5 MG ONCE 1 WK AFTER START OF DIET (STUDY DURATION: 17 WKS)
  tumour outcome (control, treated, inhibition, significance): 95%, 85%, 11%, p=0.408
Carcinogen: 7,12-DIMETHYLBENZ[A]ANTHRACENE [57-97-6], Dose [Inhibitor]: 20 UG/L IN 0.05 ML PEANUT OIL 2X/WK FOR 2 WK BEGINNING AT 7 D OF AGE (STUDY DURATION: 24 WK), Route [Inhibitor]: SUBCUTANEOUS, Species: RAT, Strain/Sex: SPRAGUE-DAWLEY/FEMALE, Target Tissue: Type of Lesion: MAMMARY GLAND: TUMOR, Dose [Carcinogen]: 10 MG IN 1 ML PEANUT OIL ONCE AT 45 D OF AGE (STUDY DURATION: 24 WK), Promoter: NONE
  tumour outcome (control, treated, inhibition, significance): 17/30 (57%), 13/30 (43%), 25%, not significant
Carcinogen: 7,12-DIMETHYLBENZ[A]ANTHRACENE, 57-97-6, Dose [Inhibitor]: 0, 25 PPM IN DIET FOR 50 WK BEGINNING 1 WK POST-CARCINOGEN DOSE (STUDY DURATION: 51 WK), Route [Inhibitor]: ORAL, Species: RAT, Strain/Sex: SPRAGUE-DAWLEY/FEMALE, Target Tissue: Type of Lesion: OVARY: ADENOCARCINOMA, Dose [Carcinogen]: 0.01 ML OF 0.5% DMBA IN OLIVE OIL INTO THE LEFT OVARY, ONCE, UNDER PENTOBARBITAL ANESTHESIA, Promoter: NONE USED
  tumour outcome (control, treated, inhibition, significance): 7/20 (35%), 1/20 (5%), 86%, p=0.02
Carcinogen: 7,12-DIMETHYLBENZ[A]ANTHRACENE, 57-97-6, Dose [Inhibitor]: 0, 250 PPM IN DIET FOR 50 WK BEGINNING 1 WK POST-CARCINOGEN DOSE (STUDY DURATION: 51 WK), Route [Inhibitor]: ORAL, Species: RAT, Strain/Sex: SPRAGUE-DAWLEY/FEMALE, Target Tissue: Type of Lesion: OVARY: ADENOCARCINOMA, Dose [Carcinogen]: 0.01 ML OF 0.5% DMBA IN OLIVE OIL INTO THE LEFT OVARY, ONCE, UNDER PENTOBARBITAL ANESTHESIA, Promoter: NONE USED
  tumour outcome (control, treated, inhibition, significance): 7/20 (35%), 0/20 (0%), 100%, p=0.0042
Carcinogen: 7,12-DIMETHYLBENZ[A]ANTHRACENE, 57-97-6, Dose [Inhibitor]: 0, 500 UG/G BW ONCE ON DAYS 16, 18 AND 20 OF AGE (STUDY DURATION: 200 D), Route [Inhibitor]: SUBCUTANEOUS, Species: RAT, Strain/Sex: SPRAGUE-DAWLEY/FEMALE, Target Tissue: Type of Lesion: MAMMARY GLAND: TUMOR, Dose [Carcinogen]: 80 UG/G BW IN SESAME OIL ONCE AT 50 DAYS OF AGE, Promoter: NONE USED
  tumour outcome (control, treated, inhibition, significance): 92%, 85%, 8%, not significant
Carcinogen: Dimethylbenzanthracene, 57-97-6, Dose [Inhibitor]: 10 mg/kg bw/day, suspended in distilled water daily by gavage, dose duration 12 wk, study duration 18 wk, Route [Inhibitor]: Oral, Species: Hamster, Strain/Sex: Syrian golden/Male, Target Tissue: Type of Lesion: Oral cavity, Dose [Carcinogen]: 100 ul of 0.5% DMBA in mineral oil applied with a paint brush 3 times/wk for 6 wk, Promoter: None
  outcome: 15/28 (53%), 11/27 (40.7%), not significant
Carcinogen: N-METHYL-N'-NITRO-N-NITROSOGUANADINE, 70-25-7, Dose [Inhibitor]: 0, 15 MG/KG 1/2 D FOR 26 WK BEGINNING 1 WK POST CARCINOGEN TREATMENT (STUDY DURATION: 52 WK), Route [Inhibitor]: SUBCUTANEOUS, Species: RAT, Strain/Sex: WISTAR/MALE, Target Tissue: Type of Lesion: STOMACH: ADENOCARCINOMA, Dose [Carcinogen]: 25 UG/ML IN DRINKING WATER FOR 25 WK, Promoter: SODIUM CHLORIDE, 7647-14-5
  tumour outcome (control, treated, inhibition, significance): 18/20 (90%), 12/20 (60%), 33%, not significant
Carcinogen: N-METHYL-N-NITROSOUREA, 684-93-5, Dose [Inhibitor]: 0, 1 MG/30 G BW 1/4 WK FOR 25 WK BEGINNING 5 WK POST CARCINOGEN TREATMENT (STUDY DURATION: 30 WK), Route [Inhibitor]: SUBCUTANEOUS, Species: MOUSE, Strain/Sex: ICR/FEMALE, Target Tissue: Type of Lesion: UTERUS (LEFT): ADENOCARCINOMA, Dose [Carcinogen]: 0.1 MG/KG BW INJECTED INTO LEFT UTERINE TUBE ONCE
  tumour outcome (control, treated, inhibition, significance): 3/26 (11%), 0/15 (0%), 100%, not significant
Carcinogen: N-METHYL-N-NITROSOUREA, 684-93-5, Dose [Inhibitor]: 0, 1 MG/30 G BW 1/4 WK FOR 25 WK BEGINNING 5 WK POST CARCINOGEN TREATMENT (STUDY DURATION: 30 WK), Route [Inhibitor]: SUBCUTANEOUS, Species: MOUSE, Strain/Sex: ICR/FEMALE, Target Tissue: Type of Lesion: UTERUS (LEFT): ADENOCARCINOMA, Dose [Carcinogen]: 0.1 MG/KG BW INJECTED INTO LEFT UTERINE TUBE ONCE, Promoter: 17-BETA-ESTRADIOL, 50-28-2
  tumour outcome (control, treated, inhibition, significance): 8/24 (33%), 0/19 (0%), 100%, p<0.01
Carcinogen: N-METHYL-N;-NITRO-N-NITROSOGUANIDINE, 70-25-7, Carcinogen: N-METHYL-N;-NITRO-N-NITROSOGUANIDINE, 70-25-7, Dose [Inhibitor]: 0, 30 MG/KG 1/2 FOR 26 WK BEGINNING 1 WK POST CARCINOGEN TREATMENT (STUDY DURATION: 52 WK), Route [Inhibitor]: SUBCUTANEOUS, Species: RAT, Strain/Sex: WISTAR/MALE, Target Tissue: Type of Lesion: STOMACH: ADENOCARCINOMA, Dose [Carcinogen]: 25 UG/ML IN DRINKING WATER FOR 25 WK, Promoter: SODIUM CHLORIDE, 7647-14-5
  tumour outcome (control, treated, inhibition, significance): 18/20 (90%), 7/19 (37%), 59%, p<0.05

## CC(=O)/C=C/C1=C(C)CCCC1(C)C
[1]
  tumour outcome (control, treated, inhibition, significance): 91%, 41%, 55%, not calculated
Dose [Inhibitor]: 0, 1000 PPM IN DIET BEGINNING 8 WK PRIOR TO CARCINOGEN AND CONTINUING FOR 6 WK POST CARCINOGEN (STUDY DURATION: 68 WK), Route [Inhibitor]: ORAL, Species: FISH, Strain/Sex: RAINBOW TROUT, Target Tissue: Type of Lesion: LIVER: HEPATOCELLULAR CARCINOMA, Dose [Carcinogen]: 20 PPB IN DIET FOR 2 WK, Promoter: NONE USED
  tumour outcome (control, treated, inhibition, significance): 43/118 (36%), 38/118 (32%), 11%, not significant

## CCCCCCCCC/C=C/C=C/C=C/C=C/C=C/C=C/C(=O)OCC
Carcinogen: AZOXYMETHANE, 25843-45-2, Dose [Inhibitor]: 0, 0.7 ML 2/WK FOR DURATION OF STUDY BEGINNING 1 D PRIOR TO FIRST CARCINOGEN DOSE (STUDY DURATION: 36 WK), Route [Inhibitor]: GAVAGE, Species: RAT, Strain/Sex: F344/MALE, Target Tissue: Type of Lesion: COLON/RECTUM: ADENOMA OR CARCINOMA, Dose [Carcinogen]: 15 MG/KG 1/WK FOR 2 WK, Promoter: NONE USED
  tumour outcome (control, treated, inhibition, significance): 20/40 (50%), 15/33 (45%), 10%, not significant

## S=C=NCCCCc1cccnc1
Carcinogen: 4-(METHYLNITROSAMINO)-1-(3-PYRIDYL)-1-BUTANONE, 64091-91-4, Dose [Inhibitor]: 0, 0.2 UMOL 1/D FOR 4 D ADMINISTERED PRIOR TO CARCINOGEN TREATMENT (STUDY DURATION: 116 D), Route [Inhibitor]: GAVAGE, Species: MOUSE, Strain/Sex: STRAIN A, Target Tissue: Type of Lesion: LUNG: ADENOMA, Dose [Carcinogen]: 10 UMOL ONCE 2 HR AFTER FINAL DOSE OF INHIBITOR, Promoter: NONE USED
  tumour outcome (control, treated, inhibition, significance): 100%, 100%, 0%, not significant
Carcinogen: 4-(METHYLNITROSAMINO)-1-(3-PYRIDYL)-1-BUTANONE, 64091-91-4, Dose [Inhibitor]: 0, 1 UMOL 1/D FOR 4 D ADMINISTERED PRIOR TO CARCINOGEN TREATMENT (STUDY DURATION: 116 D), Route [Inhibitor]: GAVAGE, Species: MOUSE, Strain/Sex: STRAIN A, Target Tissue: Type of Lesion: LUNG: ADENOMA, Dose [Carcinogen]: 10 UMOL ONCE 2 HR AFTER FINAL DOSE OF INHIBITOR, Promoter: NONE USED
  tumour outcome (control, treated, inhibition, significance): 100%, 100%, 0%, not significant

## O=CCc1c[nH]c2ccccc12
[2]
  tumour outcome (control, treated, inhibition, significance): 64%, 36%, 44%, not significant

## C#CCCc1ccccc1
Carcinogen: 4-(METHYLNITROSAMINO)-1-(3-PYRIDYL)-1-BUTANONE, 64091-91-4, Dose [Inhibitor]: 0, 5 UMOL IN 0.1 ML CORN OIL ONCE 2 HR PRIOR TO CARCINOGEN DOSE (STUDY DURATION: 16 WK), Route [Inhibitor]: GAVAGE, Species: MOUSE, Strain/Sex: STRAIN-A/FEMALE, Target Tissue: Type of Lesion: LUNG: ADENOMA, Dose [Carcinogen]: 10 UMOL IN 0.1 ML SALINE ONCE, Promoter: NONE USED
  tumour outcome (control, treated, inhibition, significance): 100%, 60%, 40%, p<0.01
